Values joined by “and” are separate entries in the source; they are usually repeats but may differ in a detail not shown here. Equal entries are not always repeated.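 How tested: cells in 96-well plates exposed to compound for 48 hours at five concentrations. GI50 is the concentration that inhibits growth by half. The concentration for full growth arrest is given as TGI.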
How the values were obtained:
Experiment in all cases: DTP human tumour cell line panel, 48 h
OVCAR-3 ovarian = system: OVCAR-3 ovarian
A498 renal = system: A498 renal
SK-MEL-28 melanoma = system: SK-MEL-28 melanoma
CAKI-1 renal = system: CAKI-1 renal
RPMI-8226 leukemia = system: RPMI-8226 leukemia
A549 NSCLC = system: A549 NSCLC
MALME-3M melanoma = system: MALME-3M melanoma
MDA-MB-231 breast = system: MDA-MB-231 breast
MCF7 breast = system: MCF7 breast
BT-549 breast = system: BT-549 breast

SMILES	TGI (OVCAR-3 ovarian) [µM]	TGI (A498 renal) [µM]	TGI (SK-MEL-28 melanoma)	TGI (CAKI-1 renal)	TGI (RPMI-8226 leukemia) [µM]	TGI (A549 NSCLC)	TGI (MALME-3M melanoma)	TGI (MDA-MB-231 breast)	TGI (MCF7 breast)	TGI (BT-549 breast) [µM]	GI50 (OVCAR-3 ovarian)	GI50 (A498 renal) [nM]	GI50 (SK-MEL-28 melanoma) [µM]	GI50 (CAKI-1 renal) [nM]	GI50 (RPMI-8226 leukemia) [nM]	GI50 (A549 NSCLC) [µM]	GI50 (MALME-3M melanoma) [µM]	GI50 (MDA-MB-231 breast) [nM]	GI50 (MCF7 breast) [nM]	GI50 (BT-549 breast) [nM]
CCN(CC)CCNc1ccc([N+](=O)[O-])c2nc3ccc(OC)cc3c(N)c12	3.55	3.08	3.37 µM	3.85 µM	0.704	2.79 µM	3.61 µM	3.25 µM	1.31 µM	2.72	–	–	–	–	–	–	–	–	–	–
NC1=C(O)C(=O)C(c2c[nH]c3ccc(OCc4ccccc4)cc23)O1 (centres undefined)	> 100	> 100	> 100 µM	> 100 µM	> 100	> 100 µM	> 100 µM	> 100 µM	> 100 µM	> 100	–	–	–	–	–	–	–	–	–	–
Cn1cc(-c2csc(-c3cn(C(=O)OC(C)(C)C)c4ccccc34)n2)c2cccnc21	5.61	14.4	33.3 µM	24.8 µM	36.7	31.2 µM	40.8 µM	20 µM	16.3 µM	21.2	2260 nM	3860	10.2	3060	7660	6.04	14.6	5300	2850	6870
CS(=O)(=O)CCNCc1ccoc1-c1ccc2ncnc(Nc3ccc(OCc4ccccc4)cc3)c2c1	> 25	> 25	> 25 µM	> 25 µM	> 25	> 25 µM	> 25 µM	> 25 µM	> 25 µM	> 25	> 25000 nM	20500	> 25	1780	> 25000	> 25	> 25	> 25000	8540	> 25000
CC1=C(SCCC(=O)OC(C[Se]C2=C(C)C(=O)c3ccccc3C2=O)C(=O)NC(C)(C)C)C(=O)c2ccccc2C1=O (centres undefined)	2.74	2.97	3.16 µM	3.36 µM	2.71	4.59 µM	3.89 µM	2.94 µM	3.65 µM	3.05	1430 nM	1550	1.78	1650	507	1.11	2.01	1490	1620	1640
COc1ccc2c(c1)[nH]c1c3ccc(OC)cc3oc(=O)c21	> 100	> 100	> 100 µM	> 100 µM	> 100	> 100 µM	> 100 µM	> 100 µM	> 100 µM	> 100	–	–	–	–	–	–	–	–	–	–
COc1ccc(C2C3=C(COC3=O)N(CCO)c3cc4c(cc32)CCC4)cc1 (centres undefined)	2.97	> 50	> 50 µM	27.7 µM	> 50	> 50 µM	> 50 µM	> 50 µM	> 50 µM	25.2	1070 nM	2360	5.31	3100	11400	3.84	3.06	10900	1860	2380
C1CC[N-]CC1.CC(=N\O)/C(C)=N/O.CC(=N\O)/C(C)=N/O.C[CH-]C(C)O.[Co+2]	51.7	73.9	61.2 µM	57.8 µM	43.4	> 100 µM	29.7 µM	64 µM	57.8 µM	79.7	17400 nM	23900	29.2	24000	18800	47.3	15.2	27200	24400	28500
CCCC(=O)OC(OC(=O)CCC)c1ccc([N+](=O)[O-])o1	41.4	> 100	46.9 µM	38.4 µM	49.7	> 100 µM	40.3 µM	68 µM	35.4 µM	> 100	–	–	–	–	–	–	–	–	–	–
C[C@H]1CC[C@@H]2[C@@H](C)[C@H]3[C@H](C[C@H]4[C@@H]5CC=C6C[C@@H](O)CC[C@]6(C)[C@H]5CC[C@]34C)N2C1	> 100	41.7	> 100 µM	> 100 µM	> 100	> 100 µM	> 100 µM	> 100 µM	> 100 µM	> 100	–	–	–	–	–	–	–	–	–	–
CN(C)Cc1cc(C(C)(C)C)cc(CN(C)C)c1O	> 100	> 100	> 100 µM	> 100 µM	> 100	> 100 µM	> 100 µM	> 100 µM	> 100 µM	> 100	–	–	–	–	–	–	–	–	–	–
O=S(=O)(Nc1ccc(Cl)c(Cl)c1)c1ccc(-c2cnc(C3CC3)o2)cc1	0.967	2.9	21.5 µM	16.7 µM	43.5	17.2 µM	25.8 µM	15.8 µM	18.3 µM	18.2	277 nM	273	4.19	384	612	0.672	2.67	1590	289	911
C=C1C(=O)OC2(C)CCC1CC1OC1(C)CCC=C(C)CCC2O (centres undefined)	> 100	> 100	> 100 µM	> 100 µM	> 100	> 100 µM	> 100 µM	> 100 µM	> 100 µM	> 100	–	–	–	–	–	–	–	–	–	–
N/C(CC(=O)NOC(=O)c1ccccc1)=N/OC(=O)c1ccccc1	> 100	> 100	99.4 µM	> 100 µM	> 100	> 100 µM	> 100 µM	> 100 µM	92.4 µM	77.6	–	–	–	–	–	–	–	–	–	–
c1ccc(-c2cc3n4c(-c5ccccc5)nn(-c5ccccc5)c4cnc-3n2)cc1	> 50	> 50	–	> 50 µM	> 50	> 50 µM	> 50 µM	> 50 µM	> 50 µM	> 50	> 50000 nM	12100	–	15100	> 50000	> 50	4.58	16400	4260	48600
CC(C)OP(=O)(OC(C)C)/C(C#N)=C/c1c[nH]c2ccccc12	> 100	> 100	> 100 µM	> 100 µM	> 100	> 100 µM	> 100 µM	> 100 µM	> 100 µM	89.3	–	–	–	–	–	–	–	–	–	–
COc1cc2c(=O)n(CC3CCCCC3)c3c4cc[nH]c4ncc3c2cc1OC	18	3.06	31.2 µM	7.39 µM	> 50	16.9 µM	26.3 µM	7.59 µM	> 50 µM	14.7	6660 nM	86	7.25	1190	3100	5	6.33	1130	640	807
C=C(CN1CCN(c2ccc(F)c(Cl)c2)CC1)c1ccc(C(=O)Nc2ccccc2N)cc1	58.9	44.1	> 100 µM	77.8 µM	5.1	24.5 µM	37.2 µM	6.81 µM	> 100 µM	26.5	6180 nM	9670	0.529	4120	1460	3.81	4.35	1810	5170	3510
CCCCCCCCc1cc(O)ccc1O	30	36	33.4 µM	90 µM	48.5	> 100 µM	34.4 µM	27.3 µM	66.8 µM	23.3	15400 nM	15300	17.4	21300	10500	28.6	16.6	13000	24800	10900
COc1ccc(F)cc1-c1ccnc2[nH]c(C3=CCN(C4CCC(CC(=O)O)CC4)CC3)cc12 (centres undefined)	> 100	0.543	0.989 µM	> 100 µM	0.786	> 100 µM	0.563 µM	–	26.9 µM	0.903	107 nM	210	0.152	434	235	0.424	0.206	205	62.5	156
N=C1C=C(N)C(=O)c2ccccc21	0.281	2.95	1.64 µM	0.379 µM	0.669	2.7 µM	0.321 µM	0.554 µM	0.391 µM	0.929	139 nM	1570	0.496	187	241	1.04	0.173	180	188	452
O=C(N/N=C/c1ccc(N(CCCl)CCCl)cc1)c1ccc(C(=O)N/N=C/c2ccc(N(CCCl)CCCl)cc2)cc1	> 100	> 100	> 100 µM	> 100 µM	15.1	> 100 µM	> 100 µM	> 100 µM	> 100 µM	76.5	19000 nM	15100	> 100	72300	1330	3.08	11.2	4730	380	2340
C[C@@H](C[C@H](CCO)c1ccccc1)c1ccc2ccccc2c1	2.91	2.42	3.06 µM	2.54 µM	4.26	3.14 µM	2.89 µM	3.19 µM	4.04 µM	3.1	1540 nM	1160	1.64	1280	1850	1.71	1.49	1600	1970	1680
COC(=O)Nc1nc2ccc(C(=O)c3cccs3)cc2[nH]1	–	1.58	61.8 µM and > 100 µM	56.3 µM and > 100 µM	–	55.8 µM and > 100 µM	43.5 µM and > 100 µM	79.2 µM and > 100 µM	46.2 µM and > 100 µM	4.33	19.2 nM and 66.4 nM	203	0.376	232	407	0.239	0.296	595	61.8	–
O=C(/C=C/c1ccc(Cl)cc1Cl)c1ccc(Cl)cc1Cl	48.1	48.5	> 74.4 µM	> 92.8 µM	17.8	47.2 µM	35.6 µM	27 µM	> 24 µM	36.1	20600 nM	20700	27.2	36000	4220	19.9	13.9	4500	7880	16000
CNc1nc(-c2ccc3c(N)n[nH]c3c2)cc(N2C[C@@H](C(=O)NC3CCCCC3)CC[C@H]2C)n1	15.6	3.02	15.8 µM	20.6 µM	18.3	20.8 µM	10.7 µM	15.7 µM	11.2 µM	12.3	2160 nM	301	1.68	1140	2930	3.37	0.302	2610	996	1910
CNC(=O)c1cc(-c2ccc(F)cc2)cc(-c2ccc(S(=O)(=O)N3CCCC3)cc2)c1N	> 25	> 25	> 25 µM	> 25 µM	> 25	> 25 µM	> 25 µM	> 25 µM	> 25 µM	> 25	18200 nM	5250	> 25	12600	10100	11.9	> 25	> 20800	8790	> 21200
CC[C@@H](C(=O)[C@@H](C)[C@@H](O)[C@H](C)[C@@H]1O[C@@H]([C@@H](CC)C(=O)O)CC[C@@H]1C)[C@H]1O[C@]2(C=C[C@@H](O)[C@]3(CC[C@@](C)([C@H]4CC[C@](O)(CC)[C@H](C)O4)O3)O2)[C@H](C)C[C@@H]1C	25.8	0.821	2.38 µM	44.2 µM	3.75	14.1 µM	1.81 µM	7.68 µM	13.1 µM	4.33	166 nM	56.7	1.14	1610	277	0.421	0.416	732	315	248

Source: PubChem BioAssay (NCI)
